Laboratory results published in the supplement of paper PMC8960247.
Where a name gives a salt, the structure may show the parent alone. ± gives the standard error.

Experiments:
621-102 (TSC2-deficient) [1] = experiment: relative viability vs DMSO; higher = less cytotoxic; conditions: serum: 10% FBS, 72 h
621-103 (TSC2-rescued) = experiment: as above; conditions: serum: 10% FBS, 72 h
621-102 (TSC2-deficient) [2] = experiment: relative viability vs DMSO (fraction); higher = less cytotoxic; conditions: serum: 0.1% FBS, 72 h
UMB1949 (TSC2-deficient) = experiment: as above; conditions: serum: 0.1% FBS, 72 h;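 note: renal angiomyolipoma cell lines screened in 384-well plates, viability normalized per plate to DMSO-treated cells, each plate carrying 50 nM rapamycin and 1 µM staurosporine controls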

Compound | relative viability (621-102 (TSC2-deficient) [1]; 0.0001 µM) [%] | relative viability (621-102 (TSC2-deficient) [1]; 0.001 µM) [%] | relative viability (621-102 (TSC2-deficient) [1]; 0.01 µM) [%] | relative viability (621-102 (TSC2-deficient) [1]; 0.1 µM) [%] | relative viability (621-102 (TSC2-deficient) [1]; 1 µM) [%] | relative viability (621-102 (TSC2-deficient) [1]; 10 µM) [%] | relative viability (621-103 (TSC2-rescued); 0.0001 µM) [%] | relative viability (621-103 (TSC2-rescued); 0.001 µM) [%] | relative viability (621-103 (TSC2-rescued); 0.01 µM) [%] | relative viability (621-103 (TSC2-rescued); 0.1 µM) [%] | relative viability (621-103 (TSC2-rescued); 1 µM) [%] | relative viability (621-103 (TSC2-rescued); 10 µM) [%] | relative viability (621-102 (TSC2-deficient) [2]; 0.0128 nM) | relative viability (621-102 (TSC2-deficient) [2]; 0.064 nM) | relative viability (621-102 (TSC2-deficient) [2]; 0.32 nM) | relative viability (621-102 (TSC2-deficient) [2]; 1.6 nM) | relative viability (621-102 (TSC2-deficient) [2]; 8 nM) | relative viability (621-102 (TSC2-deficient) [2]; 40 nM) | relative viability (621-102 (TSC2-deficient) [2]; 200 nM) | relative viability (621-102 (TSC2-deficient) [2]; 1000 nM) | relative viability (621-102 (TSC2-deficient) [2]; 5000 nM) | relative viability (UMB1949 (TSC2-deficient); 0.0128 nM) | relative viability (UMB1949 (TSC2-deficient); 0.064 nM) | relative viability (UMB1949 (TSC2-deficient); 0.32 nM) | relative viability (UMB1949 (TSC2-deficient); 1.6 nM) | relative viability (UMB1949 (TSC2-deficient); 8 nM) | relative viability (UMB1949 (TSC2-deficient); 40 nM) | relative viability (UMB1949 (TSC2-deficient); 200 nM) | relative viability (UMB1949 (TSC2-deficient); 1000 nM) | relative viability (UMB1949 (TSC2-deficient); 5000 nM)
CCCCc1nc2cc(/C=C/C(=O)NO)ccc2n1CCN(CC)CC [SB939] | 106 ± 2.5 | 116 ± 4.8 | 108.59 ± 0.1 | 96.3 ± 2 | 71.42 ± 0.65 | 35.9 ± 0.61 | 98.4 ± 1.2 | 97.63 ± 0.65 | 96.6 ± 2.1 | 96.7 ± 1.1 | 46.1 ± 2.5 | 2.74 ± 0.067 | 1.27 | 0.957 | 0.868 | 0.884 | 0.789 | 0.608 | 0.351 | 0.121 | 0.00937 | 1.04 | 1.11 | 1.25 | 1.22 | 1.03 | 0.31 | 0.0114 | 0.00881 | 0.00358
Cn1cc(-c2ccc3nnc(Sc4ccc5ncccc5c4)n3n2)cn1 [SGX-523] | 104 ± 1.6 | 94.8 ± 6.4 | 103 ± 2.1 | 98.3 ± 4.6 | 103.8 ± 0.28 | 97.5 ± 4.1 | 102 ± 1.5 | 96.42 ± 0.71 | 105 ± 2.4 | 102.4 ± 0.49 | 102.2 ± 0.92 | 97.9 ± 1.9 | 1.13 | 1.07 | 0.971 | 1.13 | 1.06 | 0.984 | 1.01 | 0.991 | 0.776 | 1.09 | 1.05 | 1.17 | 1.23 | 1.03 | 1.11 | 1.19 | 1.04 | 0.718
CC1(C)CC(=O)c2c(C(F)(F)F)nn(-c3ccc(C(N)=O)c(N[C@H]4CC[C@H](O)CC4)c3)c2C1 [SNX-2112] | 60.2 ± 9.5 | 66.4 ± 8.2 | 45.4 ± 5.8 | 21.9 ± 0.44 | 18.9 ± 2.6 | 14.8 ± 0.6 | 112 ± 4 | 111 ± 1.2 | 84.4 ± 1.3 | 7.98 ± 0.57 | 6.9 ± 0.43 | 6.78 ± 0.53 | 0.829 | 0.471 | 0.381 | 0.19 | 0.232 | 0.0887 | 0.0644 | 0.0224 | 0.0194 | 0.771 | 0.292 | 0.334 | 0.0113 | 0.00964 | 0.00549 | 0.00248 | 0.00255 | 0.00394
CO[C@H]1C[C@@H]2CC[C@@H](C)[C@@](O)(O2)C(=O)C(=O)N2CCCC[C@H]2C(=O)O[C@H]([C@H](C)C[C@@H]2CC[C@@H](OC(=O)C(C)(CO)CO)[C@H](OC)C2)CC(=O)[C@H](C)/C=C(\C)[C@@H](O)[C@@H](OC)C(=O)[C@H](C)C[C@H](C)/C=C/C=C/C=C/1C [Temsirolimus] | 40.82 ± 0.13 | 40.9 ± 3.7 | 36.1 ± 3.5 | 36.5 ± 3.5 | 41.1 ± 4.7 | 40.6 ± 4.3 | 84.1 ± 1.2 | 75.1 ± 3.1 | 78.7 ± 1.2 | 83.1 ± 3.1 | 76.9 ± 5 | 67.44 ± 0.43 | 0.696 | 0.68 | 0.714 | 0.666 | 0.524 | 0.422 | 0.263 | 0.274 | 0.171 | 0.901 | 0.874 | 0.846 | 0.894 | 0.91 | 0.816 | 0.629 | 0.415 | 0.379
Cn1cncc1[C@@](N)(c1ccc(Cl)cc1)c1ccc2c(c1)c(-c1cccc(Cl)c1)cc(=O)n2C [Tipifarnib] | 99.6 ± 4.2 | 117 ± 2.7 | 93.9 ± 2.1 | 89.4 ± 1.5 | 76.4 ± 2.5 | 63.3 ± 1.7 | 95.09 ± 0.41 | 96 ± 1.6 | 98.8 ± 1.9 | 81.5 ± 3.5 | 75.86 ± 0.6 | 64.3 ± 0.85 | 0.693 | 0.533 | 0.634 | 0.552 | 0.512 | 0.592 | 0.436 | 0.274 | 0.0644 | 0.938 | 0.909 | 0.836 | 0.961 | 0.974 | 0.798 | 0.525 | 0.25 | 0.0103
CC[C@@]1(O)C(=O)OCc2c1cc1n(c2=O)Cc2cc3c(CN(C)C)c(O)ccc3nc2-1 [Topotecan Hydrochloride] | 105 ± 5.7 | 110 ± 4.5 | 103 ± 3.6 | 80.067 ± 0.0095 | 30.3 ± 2.4 | 12.7 ± 0.7 | 106 ± 1.4 | 110.5 ± 0.33 | 102 ± 1.7 | 80.31 ± 0.015 | 26.9 ± 0.65 | 7.57 ± 0.098 | 1.03 | 0.984 | 1.06 | 0.956 | 0.888 | 0.268 | 0.0393 | 0.00545 | 0.000822 | 1.08 | 1.08 | 1.03 | 0.883 | 0.692 | 0.00466 | 0.00116 | 0.000564 | 0.0011
Cc1cc(Nc2cc(N3CCN(C)CC3)nc(Sc3ccc(NC(=O)C4CC4)cc3)n2)n[nH]1 [VX-680 (MK-0457)] | 101 ± 4.7 | 90.4 ± 2.4 | 98.8 ± 1.7 | 81.4 ± 0.96 | 76 ± 2.1 | 47.8 ± 0.98 | 99.1 ± 1.1 | 103 ± 1.9 | 100 ± 1.9 | 94.8 ± 6.2 | 78.2 ± 2 | 20.4 ± 0.69 | 1.08 | 1 | 0.776 | 0.176 | 0.0382 | 0.0452 | 0.0422 | 0.0108 | 0.00299 | 0.947 | 0.818 | 0.872 | 0.0803 | 0.0315 | 0.0297 | 0.0316 | 0.0244 | 0.0016
c1cncc(CN2CCC(n3ncc4c(N5CCOCC5)nc(-c5ccc6[nH]ccc6c5)nc43)CC2)c1 [WAY-600] | 89.809 ± 0.075 | 104 ± 2.2 | 99.7 ± 2.1 | 100 ± 1.8 | 82.5 ± 1 | 2.21 ± 0.054 | 99.7 ± 2.6 | 97.8 ± 4.8 | 103 ± 3.9 | 98.1 ± 1.8 | 54.5 ± 2.2 | 7.78 ± 0.25 | 1.07 | 1.25 | 1.04 | 1.18 | 1.21 | 1.19 | 0.798 | 0.345 | 0.00768 | 0.882 | 0.972 | 1.04 | 0.972 | 1.02 | 0.933 | 0.892 | 0.354 | 0.00636
CCC[C@H](NC(=O)/C(C#N)=C/c1cccc(Br)n1)c1ccccc1 [WP1130] | 104 ± 6 | 98.3 ± 8.2 | 99 ± 1.9 | 100 ± 3.1 | 42.6 ± 3.9 | 12.9 ± 0.62 | 99.84 ± 0.79 | 111 ± 2.8 | 109 ± 2.5 | 105 ± 1.6 | 65.6 ± 11 | 11.4 ± 1.6 | 1.37 | 1.16 | 1.59 | 1.27 | 1.4 | 1.62 | 1.11 | 0.0118 | 0.0115 | 1.14 | 0.962 | 1.13 | 1.04 | 1.02 | 1.14 | 0.0225 | 0.00218 | 0.00472
COCC[n+]1c2c(n(Cc3cnccn3)c1C)C(=O)c1ccccc1C2=O [YM155] | 119 ± 4.4 | 123 ± 2.9 | 85.19 ± 0.73 | 14.7 ± 0.34 | 2.3 ± 0.11 | 1.07 ± 0.06 | 103 ± 1.1 | 97.14 ± 0.26 | 6.98 ± 0.72 | 3.13 ± 0.25 | 1.38 ± 0.11 | 1.32 ± 0.092 | 1.26 | 1.18 | 1.05 | 1.14 | 1.01 | 0.797 | 0.0467 | 0.0022 | 0.000631 | 0.913 | 0.906 | 0.926 | 0.0628 | 0.00285 | 0.00186 | 0.00176 | 0.000862 | 0.000862
